Assay results reported in patent US10150734B2, “Solid forms of 2-(5-(3-fluorophenyl)-3-hydroxypicolinamido)acetic acid, compositions, and uses thereof” (Akebia Therapeutics, Inc., priority 2015, dated 2018).
Values after ≈ are worked out from the molar mass of the structure shown. “Also recorded” adds a separate entry of the source. Like-named read-outs stand apart in the source and are kept apart here.

Columns and labels:
[1] = Dynamic vapour sorption (moisture sorption) with XRPD of post-DVS material; assay type: physicochemical; details: for XRPD analysis of the post-DVS material: after DVS and drying at 60 °C for 2 hours; for Hygroscopicity (in words): from DVS moisture sorption; for Moisture Sorption (hygroscopicity in words): from uptake at 60% and 90% RH
Experimental: Dynamic vapour sorption experiment was carried out by first holding the sample at 40% RH and 25.0° C. until an equilibrium weight was reached or for a maximum of four hours. The sample was then subjected to an isothermal (at 25.0° C.) adsorption scan from 40 to 90% RH in steps of 10%. The sample was allowed to equilibrate to an asymptotic weight at each point for a maximum of four hours. Following adsorption, a desorption scan from […] to 5% RH (at 25.0° C.) was run in steps of 10% again allowing a maximum of four hours for equilibration to an asymptotic weight. An adsorption scan was then performed from 0 to 40% RH in steps of 10%. The sample was then dried for no less than two hours at 60.0° C. and the resulting solid analyzed by XRPD.

[2] = Single form slurry experiments of Forms A, D and G; assay type: physicochemical; details: ambient temperature, all tested conditions
Experimental: Single form slurry experiments were conducted for Forms A, D and G in three solvents stems, water, 1:2 v/v IPAc/heptane, and toluene to evaluate their physical form stability as a single polymorph (Table 14). Form A remained unchanged at six day time point. […] Form D remained unchanged for three days in water but converted to a mixture A and D at six days. In 1:2 IPAc/heptane and toluene, Form D converted to a mixture of A and D at three days and then Form A at six days. […] Form D is also a metastable polymorph but its conversion to Form A is kinetically slower than Form G. The conversion was the slowest in water partly due to low solubility.
Approximately 10-20 mg of Forms A, D and G were weighed into 8 mL clear vials equipped with magnetic stir bars (Table 14). Water, IPAc/Heptane (1:2 V/V) and toluene were used as the solvent systems for these competitive slurry experiments. Three selected solvents, 1.0 mL, were added to achieve free-flowing slurry and allowed to equilibrate at room temperature. All slurries will be isolated via centrifuge filtration after three day and six days of equilibration.

[3] = Thermal stability experiments (solid stored at 60 °C; XRPD and HPLC); details: for XRPD, aliquot time point Day 1 / XRPD, aliquot time point Day 7: solid stored at 60.0 °C; for Chemical stability / degradation by HPLC after storage at 60 °C for seven days (in words) / Physical form / XRPD pattern change after storage at 60 °C for seven days (in words): solid
[4] = Aqueous solubility (slurry in deionized water at room temperature, filtrate by HPLC, solids by XRPD); details: for Solubility / Aqueous Solubility: deionized water; for Solubility: equilibrated with stirring, filtrate by HPLC; for Aqueous Solubility: standard curve linear range 0.008 to 0.2 mg/mL; for Aqueous Solubility: XRPD (1 day) of solids: solid form after 1 day slurry in water
Experimental: Approximately 14-25 mg of Forms A, D and G were transferred to 20 mL vials equipped with magnetic stir bars. 1.0 mL of deionized water was added and the resulting free flowing slurry was allowed to equilibrate over 1 and 7 days period with stirring at room temperature. […] The filtrates were analyzed by HPLC to determine solubility.

[5] = Stability of crystalline materials from selected salts in different humidity (XRPD); assay type: physicochemical; details: for XRPD Post humidity exposure: 65% RH, RT; for XRPD Initial: before humidity exposure
From the text: Table 49 provides thermal stability data. Table 50 provides TGA thermal data.

[6] = Thermal holding (TGA thermal hold) experiments of salts, XRPD of resulting solid; assay type: physicochemical; details: for XRPD Post thermal hold / XRPD Post thermal hold, sample left on bench top, 24 hrs: 30-130 °C at 10 °C/min, hold 130 °C/2 min; for XRPD Post thermal hold, sample left on bench top, 24 hrs: then bench top 24 hrs; for XRPD of solid after thermal hold at 130 °C for 2 minutes: held at 130 °C for 2 minutes, cooled to ambient temperature; for XRPD Pre-thermal hold: before TGA thermal hold
Experimental: Salt I, Salt II, Salt III, Salt IV, Salt V, Salt VI, Salt VII, Salt VIII, Salt IX and Salt X were characterized to evaluate its physical form and stability.
In an effort to isolate a high melt crystal form, the material was held at 130° C. for 2 minutes followed by cooling to ambient temperature.
In an effort to isolate a high melt crystal form through a dehydration/recrystallization process, Salt IV was held at 130° C. for 2 minutes followed by cooling to ambient temperature.

[7] = Competitive slurry of calcium, potassium and sodium salts in acetone; assay type: physicochemical; details: for Outcome of competitive slurry of salts (in words): acetone (50 μL water added for potassium and sodium salts), room temperature, one and seven days; for XRPD of solids, aliquot time point Day 1 / XRPD of solids, aliquot time point Day 7: RT
Experimental: Calcium, sodium, and potassium salts were used to setup different competitive slurry experiments. For competitive slurry of calcium salts (˜5-6 mg of Salt I and Salt II) were weighed into a 5.0 mL clear vial equipped with magnetic stir bars. These steps were repeated for potassium salt material (˜5-6.5 mg of Salt III) and sodium salt materials (˜2.6-6.4 mg of Salt IV and Salt V). […] All slurries, 400 μL, were filtered through 0.45 micron centrifuge filters after one and seven days of equilibration. The solids were analyzed by XRPD to check for salt conversion (Table 36).

[8] = Thermal holding (TGA thermal hold) experiments of salts, XRPD of resulting solid; assay type: physicochemical
[9] = after thermal stress at 60.0 °C
[10] = parent material before thermal stress
[11] = slurry of potassium or sodium salts in acetone + 0.05 mL water
[12] = competitive slurry of calcium salts (Salt I + Salt II) in acetone 1.0 mL

Compound | Moisture adsorbed at 60% RH ([1]; DVS, 25.0 °C, 60% RH) [wt %] | Moisture Sorption 90% RH ([1]; DVS, 25.0 °C, 90% RH) [wt %] | XRPD, aliquot time point Day 1 [3] | XRPD, aliquot time point Day 7 [3] | Chemical stability / degradation by HPLC after storage at 60 °C for seven days (in words) [3] | XRPD Initial [5] | Moisture Sorption ([1]; 60% RH) | Moisture Sorption ([1]; 90% RH) | Moisture Sorption (hygroscopicity in words) ([1]; DVS) | HPLC (% AUC) [3, 9] [% AUC] | Parent Material HPLC (% AUC) [3, 10] [% AUC] | Physical form / XRPD pattern change after storage at 60 °C for seven days (in words) [3] | Outcome of competitive slurry of salts (in words) [7] | XRPD of solids, aliquot time point Day 1 [7, 11] | XRPD of solids, aliquot time point Day 7 [7, 11] | hydration property [1] | Aqueous Solubility ([4]; room temperature) [µg/mL] | Aqueous Solubility: XRPD (1 day) of solids [4] | XRPD analysis of the post-DVS material [1] | Hygroscopicity (in words) [1] | other results
O=C(O)CNC(=O)c1ncc(-c2cccc(F)c2)cc1O [Form G, 2-(5-(3-fluorophenyl)-3-hydroxypicolinamido)acetic acid] | 0.4 | 7.1 | form mixture; also recorded: A + G | only Form A | chemically stable | – | – | – | – | – | – | – | – | – | – | – | – | – | afforded Form A | slightly hygroscopic; also recorded: moderately hygroscopic | Moisture Sorption 60% RH ([1]; DVS, 25.0 °C, 60% RH): 0.4%; Moisture Sorption 90% RH ([1]; DVS, 25.0 °C, 90% RH, listed as G): 7.1 wt %; Weight moisture uptake at 60% RH ([1]; DVS, 60% RH): about 0.4 % weight; Weight moisture uptake at 90% RH ([1]; DVS, 90% RH): about 7.1 % weight; Outcome in the single form and competitive slurry experiments (in words) [2]: converted to Form A; HPLC (% AUC) ([3]; after storage at 60.0 °C): >99.9 % AUC; Parent Material HPLC (% AUC) ([3]; before storage at 60.0 °C): >99.3 % AUC; Solubility ([4]; water, thermodynamic from solid, Solubility, room temperature): 61 µg/mL (≈ 210 µM)
O=C([O-])CNC(=O)c1ncc(-c2cccc(F)c2)cc1O.[K+] [Salt III] | 2.1 | 4.5 | Salt III | Salt III | – | Salt III + Salt IX | 60% RH: 2.1 wt % | 90% RH: 4.5 wt % | (moderately | 99.9 | 99.9 | no change in physical form | most stable polymorphs | Salt III | Salt III | – | – | – | – | moderately hydroscopic; also recorded: moderately hygroscopic | XRPD Post humidity exposure [5]: Salt III + Salt IX; hydration property ([1]; 60% RH): hemi-(60% RH); hydration property ([1]; 90% RH): to mono-hydrate; XRPD Post thermal hold [6]: Salt III; XRPD Post thermal hold, sample left on bench top, 24 hrs [6]: Salt III; XRPD of solid after thermal hold at 130 °C for 2 minutes [6]: consistent with Salt III; Solid form by XRPD after 1 day ([4]; slurry in deionized water, room temperature, 1 day (24 hour)): converted from Salt III to Salt IX; Solid form by XRPD after 7 day ([4]; slurry in deionized water, room temperature, 7 days): remained as Salt IX
O.O=C([O-])CNC(=O)c1ncc(-c2cccc(F)c2)cc1O.[Na+] [Salt IV] | 6.1 | 6.5 | Salt IV | Salt IV | no polymorph conversion or degradation | Salt IV | 60% RH: 6.1 wt % | 90% RH: 6.5 wt % | (moderately | 99.9 | 99.9 | no polymorph conversion or degradation | – | Salt V + | Salt V | monohydrate | 19000 | Salt IV + Extra | consistent XRPD pattern as the starting material | moderately hydroscopic; also recorded: moderately hygroscopic | XRPD Post thermal hold [6]: Salt IV; XRPD Post thermal hold, sample left on bench top, 24 hrs [6]: Salt IV; XRPD Pre-thermal hold [6]: Salt IV; XRPD of solid after thermal hold at 130 °C for 2 minutes [6]: consistent with Salt IV; XRPD Post thermal hold ([8]; 180-260 °C at 10 °C/min, hold 260 °C/2 min): Salt VI; XRPD Post thermal hold, sample left on bench top, 24 hrs ([8]; 180-260 °C at 10 °C/min, hold 260 °C/2 min, then bench top 24 hrs): Salt VI; XRPD of solid after thermal hold at 260 °C ([8]; held at 260 °C): conversion to a new salt (Salt VI); Form change after slurrying in water for 13 days ([4]; aqueous solubility study, 13 days): no form change; Solubility ([4]; room temperature): 19000 µg/mL

Second part, led by results:

Moisture adsorbed at 60% RH ([1]; DVS, 25.0 °C, 60% RH) [wt %] | Moisture Sorption 90% RH ([1]; DVS, 25.0 °C, 90% RH) [wt %] | XRPD, aliquot time point Day 1 [3] | XRPD, aliquot time point Day 7 [3] | Chemical stability / degradation by HPLC after storage at 60 °C for seven days (in words) [3] | XRPD Initial [5] | Moisture Sorption ([1]; 60% RH) | Moisture Sorption ([1]; 90% RH) | Moisture Sorption (hygroscopicity in words) ([1]; DVS) | HPLC (% AUC) [3, 9] [% AUC] | Parent Material HPLC (% AUC) [3, 10] [% AUC] | Physical form / XRPD pattern change after storage at 60 °C for seven days (in words) [3] | Outcome of competitive slurry of salts (in words) [7] | XRPD of solids, aliquot time point Day 1 [7, 11] | XRPD of solids, aliquot time point Day 7 [7, 11] | hydration property [1] | Aqueous Solubility ([4]; room temperature) [µg/mL] | Aqueous Solubility: XRPD (1 day) of solids [4] | Compound | XRPD analysis of the post-DVS material [1] | Hygroscopicity (in words) [1] | other results
1.0 | 4.1 | Salt I | Salt I | chemically stable | – | 60% RH: 1.0 wt % | 90% RH: 4.1 wt % | (moderately | – | – | no change in physical form | most stable polymorphs | – | – | – | 10 | Salt I + Extra | O=C([O-])CNC(=O)c1ncc(-c2cccc(F)c2)cc1O.O=C([O-])CNC(=O)c1ncc(-c2cccc(F)c2)cc1O.[Ca+2] [Salt I] | consistent XRPD pattern as the starting material | moderately hydroscopic; also recorded: moderately hygroscopic | hydration property ([1]; 60% RH): anhydrate (60%; hydration property ([1]; 90% RH): monohydrate; XRPD of solids, aliquot time point Day 1 [7, 12]: Salt I; XRPD of solids, aliquot time point Day 7 [7, 12]: Salt I; Solubility ([4]; room temperature): 10 µg/mL
0.3 | 0.7 | – | – | – | – | 60% RH: 0.3 wt % | 90% RH: 0.7 wt % | – | – | – | – | – | – | – | anhydrate | – | – | O=C([O-])CNC(=O)c1ncc(-c2cccc(F)c2)cc1O.[Na+] [Salt VI] | consistent XRPD diffractogram | slightly hydroscopic; also recorded: slightly hygroscopic | –
6.0 | 6.4 | Salt V | Salt V | – | Salt V | 60% RH: 6.0 wt % | 90% RH: 6.4 wt % | (moderately | 99.9 | 99.9 | – | most stable polymorphs | Salt V + | Salt V | monohydrate | 79800 | Salt V + Extra | O.O=C([O-])CNC(=O)c1ncc(-c2cccc(F)c2)cc1[O-].[Na+].[Na+] [Salt V] | mostly consistent with Salt V with a few missing peaks | moderately hydroscopic; also recorded: moderately hygroscopic | XRPD Post humidity exposure [5]: Salt V; XRPD Pre-thermal hold [6]: Salt V
